Test results reported in US20090054510A1, “METHOD FOR IDENTIFYING COMPOUNDS FOR THE TREATMENT OF DEPRESSION” (H. LUNDBECK A/S, priority 2006, published 2009).

What was measured:
hSERT [1] = target: T1, hSERT (Homo sapiens, UniProt P31645); type: binding; conditions: increasing concentrations of (R)-citalopram; FIG. 2
T1 construct: expressed in transfected cells; host or cells: HEK293 cells expressing hSERT; membranes
Description: Association rates are determined on membrane preparations from HEK293 cells transiently expressing hSERT. The kinetics of the association of the [^3H]compound- SERT complex is determined after incubation of aliquots consisting of 10 μg membranes from HEK293 cells transiently expressing hSERT and 290 μL [^3H]test compound pre incubated until equilibrium. Association is initiated by addition of radioligand in the absence or presence of R-citalopram (0-300 μM). Bound [^3H]test compound is measured after 0, 2, 5, 10, 15, 20, 30, 50, 70 and 90 minutes.
HEK293 cells expressing hSERT are harvested and 10 μg HEK293-hSERT membrane is placed in each well in a 96 well microtiter plate. […] Concentration of test-compounds is varied from the nM to the μM range. Incubation-time is 0, 2, 5, 10, 15, 20, 30, 50, 70 and 90 minutes on ice or at room temperature (22° C.). Mebranes are harvested in ice-cold ELGA-water onto a GF/C fiberglass filter (Presoaked with 0.5% PEI for 30 min). Filters are rinsed twice with 2×0.5 ml ice-cold ELGA-water. The filters are dried and added 40 L of scintillation fluid.

[2] = system: extracellular serotonin in the ventral hippocampus; assay: Microdialysis in rats, single administration ± (R)-citalopram; type: in vivo, rat; conditions: FIG. 3
Description: (§1) Male Sprague-Dawley rats, initially weighing 275-300 g, are used
(§2) Rats are anaesthetised with hypnorm/dormicum (2 ml/kg) and intracerebral guide cannulas (CMA/12) are stereotaxically implanted into the hippocampus, aiming to position the dialysis probe tip in the ventral hippocampus (co-ordinates: 5.6 mm posterior to bregma, lateral −5.0 mm, 7.0 mm ventral to dura or in the frontal cortex (co-ordinates: 3.2 mm anterior to bregma; lateral, 0.8 mm; 4.0 mm ventral to dura). Anchor screws and acrylic cement are used for fixation of the guide cannulas. The body temperature of the animals is monitored by rectal probe and maintained at 37° C. The rats are allowed to recover from surgery for 2 days, housed singly in cages. On the day of the experiment, a microdialysis probe (CMA/12, 0.5 mm diameter, 3 mm length) is inserted through the guide cannula.
(§3) The probes are connected via a dual channel swivel to a microinjection pump. Perfusion of the microdialysis probe with filtered Ringer solution ([…], 3 mM KCl, 1 mM MgCl2, 1.2 mM CaCl2) is begun shortly before insertion of the probe into the brain and continued for the duration of the experiment at a constant flow rate of 1 μL/min. After 180 min of stabilisation, the experiments are initiated. Dialysates were collected every 20 min. […]
(§4) Concentration of 5-HT in the dialysates is analysed by means of HPLC with electrochemical detection. […]

[3] = system: extra cellular serotonin levels (ventral hippocampus); assay: 3-day microdialysis in rats (minipumps); type: in vivo, rat; conditions: 4 mg/kg vs 10 mg/kg (S)-citalopram, oxalate salts, FIG. 4
Description: as §1, §2, §3, §4

hSERT [4] = target: T1, hSERT; assay: [3H]-(S)-citalopram dissociation from SERT (allosteric site binding)
Description: The assay procedure was modified based on the methods described in Pharmacol. Toxicol., 80, 197-201, 1997 and J.Neurochem., 92, 21-28, 2005.
PeakRapid 293 cells (Edge Biosystems, Gaithersburg, Md.) were cultured in Dulbecco's Modified Eagle Medium (DMEM) supplemented with 10% bovine calf serum, 4 mM L-glutamine, 100 units/ml penicillin and 100 μg/ml streptomycin) at 37° C., 5% CO2. Human SERT cDNA in a mammalian expression vector was transiently transfected into PeakRapid 293 cells using 10 μg total DNA in 150 cm2 flasks by lipofectamine method (Invitrogen, Carlsbad, Calif.). Two days after transfection, membranes were harvested.
Binding assays were conducted in buffer containing 50 mM Tris, 120 mM NaCl, and 5 mM KCl, PH 7.4. Prior to dissociation binding, [3H]-(S)-citalopram (40 nM) was incubated with hSERT membranes (5 ug/10 ul) for 2 hours at room temperature. The reaction mixture was dispensed into 96 well format minitubes at 10 ul/well and kept on ice. […] Bound ligand was counted using a Trilux counter.
Dissociation binding data were analyzed using GraphPad Prism 4 (GraphPad, San Diego, Calif.) and Xlfit 4 (IDBS, Guildford, Surrey, UK). […] The ratios (k/k0) of the rate (k) in the presence compounds over the rate (k0) in the absence of compounds were calculated for each compound concentration. […]

T1 sequence (P31645 whole entry): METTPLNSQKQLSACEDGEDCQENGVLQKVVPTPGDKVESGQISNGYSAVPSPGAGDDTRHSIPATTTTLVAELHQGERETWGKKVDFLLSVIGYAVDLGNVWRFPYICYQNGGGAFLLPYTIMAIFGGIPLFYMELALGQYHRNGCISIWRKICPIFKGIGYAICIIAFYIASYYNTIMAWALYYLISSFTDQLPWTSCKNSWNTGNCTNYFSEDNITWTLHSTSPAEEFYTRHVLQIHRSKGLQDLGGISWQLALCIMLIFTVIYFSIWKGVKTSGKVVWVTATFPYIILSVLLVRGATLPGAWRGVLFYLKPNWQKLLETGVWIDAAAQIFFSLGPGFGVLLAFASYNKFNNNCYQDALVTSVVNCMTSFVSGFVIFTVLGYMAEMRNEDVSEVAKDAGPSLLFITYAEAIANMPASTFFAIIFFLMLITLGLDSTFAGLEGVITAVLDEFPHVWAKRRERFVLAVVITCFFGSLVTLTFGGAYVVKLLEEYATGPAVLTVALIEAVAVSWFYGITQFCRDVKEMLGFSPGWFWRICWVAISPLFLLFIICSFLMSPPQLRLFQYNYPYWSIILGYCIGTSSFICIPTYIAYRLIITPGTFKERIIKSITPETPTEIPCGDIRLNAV

## CNCc1ccccc1Sc1c[nH]c2cc(F)ccc12 [[2-(6-Fluoro-1H-indol-3-ylsulfanyl)-benzyl]-methyl-amine]
hSERT [1]
  effect of (R)-citalopram on association of the [3H] ligand to SERT: almost unaffected by (R)-citalopram
[2]
  extracellular serotonin in the ventral hippocampus: significant increase
[2]; ventral hippocampus
  effect of concomitant (R)-citalopram on the increase in extracellular serotonin: not affected by concomitant administration of (R)-citalopram
[3]
  increase in serotonin levels compared with (S)-citalopram: faster and more pronounced increase in the serotonin levels than (S)-citalopram
hSERT [4]; at 200 μM
  slowing of 3H (S)-citalopram dissociation rate (fold modulation): 5.4 fold
hSERT [4]; hSERT membranes, [3H]-(S)-citalopram 40 nM, room temperature, N=2, read-out: IC50 of binding to an allosteric site (from k/k0 of 3H-(S)-citalopram dissociation)
  IC50: 26 µM
